The values below come from ChEMBL document CHEMBL5393444, “Sulfonamide derivatives as ctps1 inhibitors” (2022).

The species named for one assay is Homo sapiens. The assay can be described thus: Selectivity ratio of IC50 for human CTPS2 to IC50 for human CTPS1 by RapidFire/MS analysis.
In a further assay the target is T1, CTP synthase 1 (Homo sapiens, UniProt P17812).
T1 sequence (P17812 whole entry): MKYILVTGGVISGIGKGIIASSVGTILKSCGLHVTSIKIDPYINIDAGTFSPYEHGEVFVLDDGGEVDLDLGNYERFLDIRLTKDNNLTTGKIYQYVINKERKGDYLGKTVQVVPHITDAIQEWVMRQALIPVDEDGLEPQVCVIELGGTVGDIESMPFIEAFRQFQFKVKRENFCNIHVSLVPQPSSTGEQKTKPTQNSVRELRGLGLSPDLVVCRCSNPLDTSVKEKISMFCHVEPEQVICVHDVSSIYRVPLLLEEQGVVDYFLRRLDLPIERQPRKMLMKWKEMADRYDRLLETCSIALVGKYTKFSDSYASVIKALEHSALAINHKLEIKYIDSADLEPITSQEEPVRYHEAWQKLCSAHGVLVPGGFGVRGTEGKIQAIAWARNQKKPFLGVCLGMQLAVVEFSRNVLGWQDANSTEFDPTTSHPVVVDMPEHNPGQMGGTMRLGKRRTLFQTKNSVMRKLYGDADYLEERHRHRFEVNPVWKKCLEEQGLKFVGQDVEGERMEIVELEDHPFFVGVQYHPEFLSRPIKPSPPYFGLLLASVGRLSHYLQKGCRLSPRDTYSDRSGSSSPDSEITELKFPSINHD
Nature of the assay: Inhibition of C-terminal FLAG-His8-tagged full length human CTPS1 preincubated for 10 mins followed by substrate addition by ADP-Glo assay. In general terms: ADP-Glo turns the ADP formed in a reaction into a luminescent signal.

Turning to `CCOc1cncc(-c2ccc(NC(=O)C3(c4ccnc(NS(=O)(=O)C5CC5)n4)CCC(=O)CC3)nc2)n1`, the Ratio IC50 in the assay filed under Homo sapiens is greater than 60. Moreover, at CTP synthase 1, the IC50 was no more than 100 nM.

With `CCOc1cncc(-c2ccc(NC(=O)C3(c4ccnc(NS(=O)(=O)C5CC5)n4)CCC4(CC3)OCCO4)nc2)n1`, the Ratio IC50 in the assay listed under Homo sapiens was greater than 60. For the same compound, the IC50 against CTP synthase 1 was no more than 100 nM.

In the case of `CCOc1cncc(-c2ccc(NC(=O)C(CC)c3ccnc(NS(=O)(=O)C4CC4)n3)c(C)c2)n1` (configuration not stated), the Ratio IC50 in the assay listed under Homo sapiens stood at 2. At CTP synthase 1, this compound displayed an IC50 of no more than 100 nM.

On to `CCOc1cncc(-c2ccc(NC(=O)C3(c4ccnc(NS(=O)(=O)C5CC5)n4)CCOCC3)c(F)c2)n1`, for which, in the assay listed under Homo sapiens, the Ratio IC50 was greater than 60. In addition, the IC50 against CTP synthase 1 was no more than 100 nM.

For the compound `CCOc1cncc(-c2ccc(NC(=O)C(CC)c3cncc(NS(=O)(=O)C4CC4)n3)cc2)n1` (configuration not stated), the Ratio IC50 in the assay filed under Homo sapiens is greater than 60. On CTP synthase 1, this compound gave a 50% inhibitory concentration (IC50) of no more than 100 nM.

Turning to `CCOc1cncc(-c2ccc(NC(=O)C(OC)c3ccnc(NS(=O)(=O)C4CC4)n3)cc2)n1` (configuration not stated), in the assay filed under Homo sapiens, the Ratio IC50 is 2. Further, the IC50 against CTP synthase 1 was no more than 100 nM.

A word on the IC50: it is the concentration at which inhibition is half-maximal. The low end stands for greater potency in that assay, the high end for weaker potency in that assay.
